What was measured:
Colo-205 xenografts = assay: In vivo antiproliferation, Colo-205 xenografts in BALB/c-nu mice; settings: for tumor volume at day 24: control 300.5±22.3
Method: We further examined whether 10-HCPT is effective in growth suppression in vivo after tumor formation. Colo-205 cells were transplanted into BALB/c-nu mice, and when the tumors were palpable (3-5 mm), the mice were treated either with vehicle control or 10-HCPT.
The in vivo experiment was carried out with ethical committee approval and met the standards required by the Guiding Principles in the Use of Animals in Toxicology, which were adopted by the Society of Toxicology in 1989. The BALB/c-nu mice were obtained from National Laboratory Animal Center of National Applied Research Laboratories (Taipei, Taiwan) and housed in a laminar flow room under sterilized conditions with the temperature being maintained at 25±2° C. and the light controlled at 12 h light and 12 h dark cycle. The Colo 205 cells were harvested and resuspended in serum free RPMI-1640 medium. Cells were adjusted to 1×10^7 cells/mL, and transplanted subcutaneously on the flank regions of the mice. Each experimental group included six to seven mice bearing tumors.
(§1) 10-HCPT was dissolved in propylene glycol and treatment began when the tumor size reached 3-5 mm. 10-HCPT was administered via p.o. once per two or four days at doses of 1-7.5 mg/kg (volume of injection: 0.1 mL/20 g of body weight), respectively. The control group received propylene glycol vehicle once per two days. Tumor size and body weight were monitored twice a week throughout the experiment. The tumor size was measured using a vernier caliper. Tumor volume (V) was calculated according to the formula: V (mm^3)=0.4AB^2, where A and B are the longest diameter and the shortest diameter, respectively. At the end of experiment, all mice were sacrificed by CO2 gas. Tumors, livers, kidneys, and lungs were collected, fixed, embedded and stained with hematoxylin and eosin for pathological analysis.

Colo-205 cells = assay: DNA fragmentation assay; assay type: cell-based, human; settings: various concentrations, 48 hrs, 1.5% agarose gel
Source text: Because apoptosis always takes place as a consequence of a cell cycle block, it is possible that 10-HCPT is able to cause cell death through apoptosis pathway. To verify this possibility, we first performed DNA fragmentation assay since DNA fragmentation is one characteristic of apoptosis.
The DNA of Colo-205 cells treated with various concentrations of 10-HCPT for 48 hrs was extracted and analyzed by 1.5% native agarose gel electrophoresis.

[1] = system: human colon cancer Colo-205 cells; assay: MTT assay of cell growth, Colo-205; assay type: cell-based
Method: (§2) Two human colon cancer cell lines, Colo-205 (ATCC accession No. CCL-222) and HT-29 (ATCC accession No. HTB-38), were used in this study. Cells were treated with 0.2, 0.76, 1.52, 7.62, 15.24, 22.87, 30.49, 38.11, 45.73 or 53.35 μM 10-HCPT or CPT-11 for 1-3 days, and the relative number of the viable cells was determined by MTT assay as described below.
(§3) Cells were seeded in a 24-well cell culture cluster (Costar, Cambridge, Mass.) at a density of 1×10^6 cells per mL and cultured overnight prior to drug treatment. After 10-HCPT or CPT-11 treatment for 3 days, the medium was discarded and replaced with an equal volume (0.5 mL) of fresh medium containing 0.456 mg/mL 3-[4,5-dimethylthiazol-2-yl]-2,5-diphenyl-tetrazolium bromide (MTT; Sigma Chemical Company) and incubated for 2 hours at 37° C. in the dark. The medium was discarded, and cells were then combined with […] dimethyl sulfoxide (Sigma Chemical Company) to dissolve the formazan produced. Cell viability was determined according to the calorimetric comparison by reading optical density (OD) values from a microplate reader (Spectra Max 250; Spectra Diode Laboratories, CA) at an absorption wavelength of 570 nm.

[2] = system: caspases (IETD-pNA and LEHD-pNA substrates); assay: IETD-pNA and LEHD-pNA cleavage in cell lysates; assay type: cell-based, human; settings: Colo-205 cells
[3] = Toxicity in xenograft-bearing nude mice (body weight, pathology); assay type: in vivo
Method: as §1

human Hep G2 cells = settings: cited from earlier work
[4] = system: human colon cancer HT-29 cells; assay: MTT assay of cell growth, HT-29; assay type: cell-based; settings: HT-29, days 1-3, MTT
Method: as §2, §3

CC[C@@]1(O)C(=O)OCc2c1cc1n(c2=O)Cc2cc3cc(O)ccc3nc2-1 [10-HCPT, 10-hydroxy-camptothecin]
tumor volume at day 24 (Colo-205 xenografts; 2.5 mg/kg/2 days p.o., P<0.01): 85.9±12.3 mm^3
tumor volume at day 24 (Colo-205 xenografts; 2.5 mg/kg/4 days p.o.): 273.1±33.7 mm^3
tumor volume at day 24 (Colo-205 xenografts; 5 mg/kg/2 days p.o., P<0.01): 60.8±15.4 mm^3
tumor volume at day 24 (Colo-205 xenografts; 5 mg/kg/4 days p.o., p<0.05): 228.9±45.3 mm^3
tumor volume at day 24 (Colo-205 xenografts; 7.5 mg/kg/2 days p.o., P<0.01): 7.2±2.8 mm^3
tumor volume at day 24 (Colo-205 xenografts; 7.5 mg/kg/4 days p.o., p<0.05): 182.9±43.9 mm^3
tumor growth suppression (Colo-205 xenografts; oral, 2.5-7.5 mg/kg/2 days, nude mouse xenografts): obviously observed
DNA ladders (Colo-205 cells): DNA ladders were detected
concentration at which significant growth inhibition was observed ([1]; Colo-205, day 2 and day 3, MTT, vs vehicle controls): 0.2 µM
concentration at which complete growth inhibition was observed ([1]; Colo-205, days 1-3, MTT): 1 µM
caspase activation with IETD-pNA substrate [2]: only stimulated little caspase activations
caspase activation with LEHD-pNA substrate [2]: only stimulated little caspase activations
average body weight ([3]; 7.5 mg/kg/2 days-treated group, end of study): slightly recovered
acute toxicity ([3]; 1-7.5 mg/kg, p.o., once per two or four days, nude mice): no obvious acute toxicity
body weight ([3]; all treated groups except the 7.5 mg/kg/2 days-treated group): No significant reduction in body weight
tissue damage in liver, lung and kidney ([3]; tissue slices stained with hematoxylin and eosin): no tissue damage was observed
effect on differentiation (human Hep G2 cells): differentiation inducing effect
concentration at which complete growth inhibition was observed [4]: 0.5 µM

— patent publication US20080039485A1, “LOW-DOSE-LONG-TERM PHARMACEUTICAL COMPOSITION COMPRISING CAMPTOTHECIN DERIVATIVES FOR THE TREATMENT OF CANCERS” (TARGETGEN BIOTECHNOLOGY CO., LTD., priority 2006, published 2008)
